# Assay results published in patent US9889108B2, “Compositions and methods for treating non-alcoholic steatohepatitis” (priority 2013, dated 2018).
# Columns and labels:
# CYP450 = settings: at free concentrations observed in humans; cited from earlier work
# [1] = Absorption, distribution and metabolites after oral 14C-EPA-E in rats; assay type: in vivo, rat
# Procedure: (§1) EPADEL is a product containing ethyl all-cis-5,8,11,14,17-eicosapentaenoate (EPA-E), one of the n-3 essential fatty acids. The preclinical absorption, distribution, metabolism and excretion (ADME) characteristics of EPA-E have been determined primarily in rats.
# After administration of ^14C-EPA-E into the ligated intestine of rats, the residual radioactivity in the intestine at 24 hours was only 4.6% of the administered dose. Radioactivity transferred to the plasma and lymph was mainly detected in the triglyceride (TG) fraction in the early phase after dosing, while distribution to the free fatty acid (FFA) fraction was slight at all timepoints. […] Orally administered EPA-E was primarily incorporated in adrenal gland lipids as cholesterol esters of the fatty acids eicosapentaenoic acid (EPA), docosapentaenoic acid (DPA) and docosahexaenoic acid (DHA).
# After oral administration of ^14C-EPA-E to the rat, EPA, DPA and DHA were detected as metabolites in the total lipid fraction of the plasma and tissues (liver, fat, heart and brain). […] In the total lipid fraction of the liver, the radioactivity originated mainly from EPA, DPA and DHA. Thus, it is considered that EPA, DPA and DHA are the predominant metabolites of ^14C-EPA-E in tissues, as constituent fatty acids of the total lipid fraction.
# [2] = test system: central nervous, autonomic nervous, respiratory and cardiovascular systems; test: Safety pharmacology studies; assay type: in vivo; settings: oral doses up to 3000 mg/kg
# subjects with NASH = test: Phase II double blind, placebo-controlled clinical trial of EPA-E in subjects with NASH; assay type: in vivo, human; design: Efficacy, proportion of responders (NAS Score ≦3 or improvement of ≧2 across at least 2 of NAS components): dose or concentration left out as unconfirmed
# Description: The non-alcoholic fatty liver disease activity score (NAS) is defined as the unweighted sum of the values for steatosis (ranging from 0-3), lobular inflammation (ranging from 0-3) and ballooning (ranging from 0-2), thereby providing a range of NAS score of from 0 to 8. […] Alternatively, patients can show an improvement in NAS by a value of ≧2 across at least two of the NAS components, together with no worsening in fibrosis. Alternatively, patients can show an improvement in NAS score by ≧3, 4, 5, 6, 7 or 8. This example provides the protocol used for an ongoing phase II clinical trial, double blind, placebo-controlled study to investigate the safety, efficacy, and pharmacokinetic profile of two doses of EPA-E in subjects with NASH. Up to 70 subjects were enrolled into each treatment arm, for a total of 210 subjects to be enrolled. Block randomization using an interactive voice response system (IVRS) was used to assign patients in a 1:1:1 ratio to two active doses and placebo. Patients were stratified at randomization by presence or absence of diabetes. Patients with diabetes comprised no more than 25% of the total number of patients enrolled. […] Subjects were required to have a liver biopsy with proven NASH in the 6 month period prior to screening. The Pharmacokinetic profile for EPA-E was evaluated in a subgroup of subjects in specified sites. Subjects were approached prior to providing informed consent to determine if they will participate in the PK group subset. Approximately 36 subjects participated in the PK subset evaluation (12 from each treatment arm, to include 6 males and 6 females). In order to support the trial, EPA-E capsules and matching placebo capsules were prepared. EPA-E capsule is an oval soft gelatin capsule containing 300 mg of EPA-E as an active ingredient. […] These capsules are unidentifiable as EPA-E capsules or placebo capsules. Subjects were administered orally 3 capsules 3 times daily, immediately after meals. 1. Diagnosis of definite NASH by the central reading pathologists: • Liver biopsy slides will be submitted for evaluation by the central pathologists according to one of the following criteria: • a. Previous liver biopsies must have been obtained within 6 months prior to informed consent and should be judged by the local pathologist as showing NAS ≧4 with a minimum score of 1 each for steatosis and lobular inflammation plus […] ballooning OR at least 1a sinusoidal fibrosis AND a finding of possible or definite steatohepatitis • b. For liver biopsies performed after informed consent is obtained, all slides will be submitted for reading by the central pathologists in conformity with the independent pathology review charter (IPRC)
# platelets from rats = test: Platelet anti-aggregation, rat platelets; assay type: cell-based
# platelets from rabbits = test: Platelet anti-aggregation, rabbit platelets; assay type: cell-based
# arteries in rabbits = test: Elasticity of arteries in rabbits; assay type: in vivo, rabbit
# [3] = Excretion of radioactivity after single oral administration (rats); assay type: in vivo, rat
# Procedure: as §1
# Consequently, when EPA-E is administered orally to humans, it would appear that it is well absorbed, even though the unchanged ethyl ester form is not detected, and the free form (EPA) is only detected at a very low level, in the blood. Due to this absorption mechanism of essential fatty acids, the administered EPA-E exists as a blood-constituent fatty acid in the total lipids. […] Radioactivity was primarily excreted in expired air (44%) after single oral administration at 30 mg/kg EPA-E with minimal excretion in bile and urine (˜3%) and approximately 20% excreted in feces.
# Renal excretion was the elimination route for several minor highly polar metabolites (<0.4%), but EPA-E, EPA, DPA or DHA were not detected in the urine. In feces, EPA-E and EPA, evidently derived from the unabsorbed drug, were detected; however, no DPA or DHA was detected in the feces.
# [4] = test system: methionine-choline deficient diet rat model of nonalcoholic steatohepatitis; test: Methionine-choline deficient diet rat model of nonalcoholic steatohepatitis; assay type: in vivo; settings: repeat oral administration at 1000 mg/kg; by suppressing inflammation and oxidative stress
# platelets from humans = test: Platelet anti-aggregation, human platelets; assay type: cell-based
# [5] = test system: mouse diet-induced hepatic steatosis model; test: Mouse diet-induced hepatic steatosis model; assay type: in vivo; settings: repeat oral administration at ≧0.1 mg/g
# rabbits = test: Lipid lowering in rabbits; assay type: in vivo, rabbit
# [6] = test system: galactosamine-induced steatohepatitis mouse model; test: Galactosamine-induced steatohepatitis mouse model; assay type: in vivo; settings: oral administration at 1000 mg/kg; by suppressing triglyceride accumulation
# rats = test: Lipid lowering in rats; assay type: in vivo, rat
# hamsters = test: Lipid lowering in hamsters; assay type: in vivo, hamster
smiles,measurement,setting,value
"CC/C=C\C/C=C\C/C=C\C/C=C\C/C=C\CCCC(=O)O [EPA, eicosapentaenoic acid]",Inhibition of CYP450,CYP450,unlikely to inhibit
CC/C=C\C/C=C\C/C=C\C/C=C\C/C=C\CCCC(=O)OCC [^14C-EPA-E],Unchanged EPA-E in the plasma or tissues,"[1]; after oral administration of 14C-EPA-E to the rat, liver, fat, heart and brain",no unchanged EPA-E was found
same,Distribution of radioactivity in body tissues,"[1]; rats, relatively high levels in brown fat, adrenal, liver and pancreas",widely distributed
"CC/C=C\C/C=C\C/C=C\C/C=C\C/C=C\CCCC(=O)OCC [EPA-E, ethyl all-cis-5,8,11,14,17-eicosapentaenoate]","Effect on central nervous, autonomic nervous, respiratory and cardiovascular systems",[2],no effect
same,"Serum EPA/AA ratios, patients with sFas≦9.5 ng/mL versus sFas >9.5 ng/mL","subjects with NASH; Day 365, FIG. 21 and FIG. 22",higher
same,Response rate,"subjects with NASH; fasting glucose=<125 mg/dL and HbA1c=<6.4, Study arm 1, FIG. 4",higher response to rate
same,"Efficacy, response rate","subjects with NASH; fasting glucose=<125 mg/dL and HbA1c=<6.4, Study arm 2, FIG. 4",equivalent to that of Study arm 1
same,"Efficacy, NASH response (change of NAS score)","subjects with NASH; patients with GGT levels=<33 IU/L, Study arm 1 and 2, FIG. 9",higher efficacy
same,"Efficacy, preliminary endpoint achievement rate","subjects with NASH; patients with GGT levels=<60 IU/L, Study arm 1 and 2, FIG. 8",higher efficacy
same,"Efficacy, improvement of serum EPA/AA ratio on Day 365","subjects with NASH; patients with GGT ≦33 IU/L, Study arm 2, FIG. 10",higher efficacy
same,"Efficacy, proportion of responders","subjects with NASH; patients with HbA1c=<6.4, Study arm 1, FIG. 2",higher efficacy
same,"Efficacy, proportion of responders","subjects with NASH; patients with HbA1c=<6.4, Study arm 2, FIG. 2",equivalent to that of Study arm 1
same,"Efficacy, proportion of responders","subjects with NASH; patients with NASH risk score equal to or less than 4.0, especially 3.0, 1800 mg EPA-E, TID, FIG. 19",higher efficacy
same,"Efficacy, proportion of responders","subjects with NASH; patients with fasting glucose =<125 mg/dL, Study arm 1, FIG. 3",higher efficacy
same,"Efficacy, proportion of responders","subjects with NASH; patients with fasting glucose =<125 mg/dL, Study arm 2, FIG. 3",equivalent to that of Study arm 1
same,"Efficacy, proportion of responders","subjects with NASH; patients with sFas equal to or less 10.0 ng/mL and/or M30 equal to or less 1500 U/L, 1800 mg EPA-E, TID and 2700 mg EPA-E, TID, FIG. 18",higher efficacy
same,"Efficacy, proportion of responders","subjects with NASH; patients with serum M30 equal to or less 1500 U/L, especially 900 U/L, more especially 500 U/L, 1800 mg EPA-E, TID, FIG. 17",higher efficacy
same,"Efficacy, proportion of responders","subjects with NASH; patients with serum sFas equal to or less 9.5 ng/mL, 1800 mg EPA-E, TID, FIG. 14",higher efficacy
same,"Efficacy, NASH response (change of NAS score)","subjects with NASH; patients with serum sFas equal to or less 9.5 ng/mL, Study arm 1 (1800 mg EPA-E, TID), FIG. 16",higher efficacy
same,"Efficacy, proportion of responders","subjects with NASH; patients with serum sFas equal to or less 10.0 ng/mL, especially 9.5 ng/mL, 1800 mg EPA-E, TID, FIG. 15",higher efficacy
same,"Efficacy, proportion of responders","subjects with NASH; patients without biliary tract disease markers (GGT ≦33 IU/L), Study arm 1 (600 mg TID) and Study arm 2 (900 mg TID), FIG. 7",higher efficacy
same,"Efficacy, proportion of responders (NAS Score ≦3 or improvement of ≧2 across at least 2 of NAS components)","subjects with NASH; patients without diabetes or with mild diabetes compared to diabetic patients, Study arm 1, FIG. 1",higher efficacy
same,"Efficacy, proportion of responders","subjects with NASH; patients without diabetes or with mild diabetes, Study arm 2 (900 mg EPA-E, TID), FIG. 1",equivalent to that of Study arm 1
same,Effect on platelet aggregation,platelets from rats,anti-aggregation effects
same,Effect on platelet aggregation,platelets from rabbits,anti-aggregation effects
same,Elasticity of arteries,arteries in rabbits,preserve the elasticity of arteries
same,EPA-E and EPA in feces,"[3]; derived from the unabsorbed drug, no DPA or DHA detected",detected
same,"EPA-E, EPA, DPA or DHA in the urine",[3]; species not given,not detected
same,Fibrosis,[4],inhibited fibrosis
same,Effect on platelet aggregation,platelets from humans,anti-aggregation effects
same,Fat accumulation,[5],suppressed fat accumulation
same,Hepatic SREBP-1c levels,[5],suppressing hepatic SREBP-1c levels
same,Absorption,"[1]; single oral dose of 14C-EPA-E 30-1000 mg/kg, rats, mainly through the lymphatic route",well-absorbed
same,Lipid lowering,rabbits,lower lipids
same,Progression of steatohepatitis,[6],retarded progression of steatohepatitis
same,Lipid lowering,rats,lower lipids
same,Lipid lowering,hamsters,lower lipids
